Some test systems named below: 786-0; A498; ACHN; HL-60; HT-29; KM-20L2; KM12; M14; MOLT-4; OVCAR-3; OVCAR-5; SF-268; SK-MEL-2; SNB-75; SR; SW-620; UACC-257; Hs-578T; MDA-MB-231; NCI/ADR-RES.
Assay in all cases: growth of human tumour cells (NCI), 48 h

Each structure is given as a SMILES string.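 Values below derive from 48-hour exposures of cells grown in 96-well plates, with endpoints linearly interpolated between the two concentrations bracketing the appropriate inhibition level. Abbreviation: GI50, concentration required for 50% inhibition of growth.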 The source made the active and inactive calls. Rule as the data show it: active = GI50 up to about 1.1 µM and inactive = higher. Where only a bound is given, the exact number is not on record here.

For the compound `N#C/C(=C\c1ccc(O)c(O)c1)C(N)=S` [TYRPHOSTIN 47], the GI50 with 786-0 was 56.6 µM (inactive); with A498, > 100 µM (inactive); with ACHN, > 100 µM (inactive); in the assay on HL-60, 10.1 µM (inactive); in the assay on HT-29, 61.8 µM (inactive); in the assay with KM-20L2, > 70.5 µM (inactive). Besides, the GI50 in the assay on KM12 was 68.2 µM (inactive); in the assay with M14, > 100 µM (inactive); with MOLT-4 it was 32.7 µM (inactive); in the assay with OVCAR-3 it was 38.7 µM (inactive); in the assay on OVCAR-5 it was > 100 µM (inactive); with SF-268 it was 66.1 µM (inactive). Further, the GI50 in the assay with SK-MEL-2 was > 100 µM (inactive); in the assay with SNB-75, 7.36 µM (inactive); with SR it was 36.1 µM (inactive); in the assay with SW-620, 79.1 µM (inactive); in the assay with UACC-257, > 54.7 µM (inactive).

As to `CC1OC(n2cc(I)c(=O)[nH]c2=O)C=CC1=O` (configuration not stated), the GI50 is 14 µM (inactive) with 786-0; 16.1 µM (inactive) with A498; 17.7 µM (inactive) with ACHN; 6.82 µM (inactive) in the assay on HL-60; 16.8 µM (inactive) in the assay with HT-29; 17 µM (inactive) in the assay with KM-20L2. Besides, the GI50 was 13 µM (inactive) in the assay on KM12; 16.9 µM (inactive) in the assay on M14; 14.1 µM (inactive) with MOLT-4; 17.5 µM (inactive) with OVCAR-3; 25 µM (inactive) in the assay on OVCAR-5; 14.1 µM (inactive) with SF-268. Besides, the GI50 was 17.9 µM (inactive) with SK-MEL-2; 17.2 µM (inactive) in the assay on SNB-75; 12.6 µM (inactive) in the assay with SR; 13.2 µM (inactive) in the assay with SW-620; 14.7 µM (inactive) with UACC-257.

In the case of `COc1ccc2c(CN3CCCCC3CO)cc3cc(OC)c(OC)cc3c2c1` (configuration not stated), the GI50 was 4.8 µM (inactive) with 786-0; 3.59 µM (inactive) with A498; 3.5 µM (inactive) with ACHN; 3.38 µM (inactive) in the assay on HL-60; 2.43 µM (inactive) in the assay on HT-29; 3.64 µM (inactive) in the assay on KM-20L2. Further, the GI50 in the assay with KM12 is 4.35 µM (inactive); with M14, 4.74 µM (inactive); with MOLT-4, 2.82 µM (inactive); in the assay on OVCAR-3, 5.57 µM (inactive); with OVCAR-5 it was 3.1 µM (inactive); with SF-268 it was 6.28 µM (inactive). Also, the GI50 with SK-MEL-2 was 4.17 µM (inactive); in the assay with SNB-75, 8.53 µM (inactive); in the assay with SR it was 3.72 µM (inactive); with SW-620, 3.88 µM (inactive); in the assay with UACC-257, 3.82 µM (inactive).

With `O=[N+]([O-])C1C2C=CC(C2)[C@H]1c1ccccc1Cl` (some centres not stated), the GI50 with 786-0 was > 100 µM (inactive); with A498, > 89.9 µM (inactive); with ACHN it was > 83.6 µM (inactive); in the assay with HL-60, 29.9 µM (inactive); in the assay on HT-29, 99.8 µM (inactive); with KM-20L2, > 100 µM (inactive). Further, the GI50 is > 100 µM (inactive) with KM12; > 100 µM (inactive) in the assay with M14; 57 µM (inactive) in the assay on MOLT-4; 22 µM (inactive) in the assay with OVCAR-3; 16.5 µM (inactive) in the assay on OVCAR-5; > 100 µM (inactive) in the assay on SF-268. Moreover, the GI50 is > 77.8 µM (inactive) in the assay on SK-MEL-2; 20.5 µM (inactive) in the assay with SNB-75; 47.9 µM (inactive) with SR; > 100 µM (inactive) with SW-620; 67 µM (inactive) in the assay with UACC-257.

Take `Cc1cccc(C)c1N1C(=O)C(=O)C(c2nc3ccccc3s2)/C(=N/NC(=O)NN)C1=O` (configuration not stated): the GI50 in the assay on 786-0, with A498, in the assay with ACHN, in the assay on HL-60, with HT-29 and in the assay on KM-20L2 was > 100 µM (inactive) in each case. In addition, the GI50 in the assay with KM12, in the assay on M14, in the assay with MOLT-4, in the assay with OVCAR-3, in the assay on SF-268 and in the assay on SK-MEL-2 was > 100 µM (inactive) in each case. Moreover, the GI50 with SNB-75, with SR, with SW-620 and in the assay with UACC-257 was > 100 µM (inactive) in each case.

With `CCCCCCCCCCCCNC(=S)OCCCC`, the GI50 is > 100 µM (inactive) in the assay with 786-0; > 100 µM (inactive) in the assay on A498; > 100 µM (inactive) in the assay on ACHN; 16.4 µM (inactive) in the assay on HL-60; 72.3 µM (inactive) in the assay with HT-29; > 100 µM (inactive) with KM-20L2. The GI50 is 28 µM (inactive) in the assay on KM12; > 100 µM (inactive) in the assay with M14; 17.9 µM (inactive) with MOLT-4; 31.8 µM (inactive) in the assay with OVCAR-5; > 100 µM (inactive) with SF-268; 17.2 µM (inactive) in the assay on SK-MEL-2. Moreover, the GI50 was > 100 µM (inactive) in the assay on SNB-75, 30.1 µM (inactive) in the assay with SR, > 100 µM (inactive) in the assay with SW-620 and 35.7 µM (inactive) in the assay on UACC-257.

As for `c1ccc(-c2sc(-c3ccccc3)c3c2C(c2ccccc2)c2c(-c4ccccc4)sc(-c4ccccc4)c2C3c2ccccc2)cc1` (configuration not stated), the GI50 with 786-0, in the assay on A498, with ACHN, in the assay with HL-60, in the assay on HT-29 and in the assay with KM-20L2 was > 100 µM (inactive) throughout. Besides, the GI50 with KM12, with M14, with OVCAR-3, with OVCAR-5, with SF-268 and in the assay with SNB-75 was > 100 µM (inactive) each time. The GI50 in the assay on SR, with SW-620 and with UACC-257 was > 100 µM (inactive) in each case.

For the compound `COC(=O)C1=CC2C(=O)OC1C1C(=O)NC(=O)C21` (configuration not stated), the GI50 in the assay with 786-0, in the assay on A498, in the assay on ACHN, with HL-60, in the assay with HT-29 and in the assay with KM-20L2 was > 100 µM (inactive) throughout. Further, the GI50 in the assay with KM12 was > 100 µM (inactive); with M14, > 100 µM (inactive); in the assay with MOLT-4, > 100 µM (inactive); in the assay on OVCAR-3 it was > 100 µM (inactive); in the assay on SF-268, > 100 µM (inactive); with SNB-75, 74.6 µM (inactive). For the same compound, the GI50 with SR, in the assay on SW-620 and with UACC-257 was > 100 µM (inactive) throughout.

`CC1=C(c2cc(C(=O)Nc3nccs3)nc(NC#N)n2)Sc2ccccc2N1`: the GI50 in the assay on 786-0, in the assay on A498, with ACHN, in the assay with HL-60, in the assay on HT-29 and in the assay on KM-20L2 was > 100 µM (inactive) each time. In addition, the GI50 in the assay with KM12, in the assay with M14, with MOLT-4, in the assay with OVCAR-3, with OVCAR-5 and in the assay with SF-268 was > 100 µM (inactive) each time. Further, the GI50 is > 100 µM (inactive) in the assay on SK-MEL-2; 87.3 µM (inactive) in the assay on SNB-75; > 100 µM (inactive) in the assay with SR; > 100 µM (inactive) in the assay on SW-620; > 100 µM (inactive) in the assay with UACC-257.

As for `C[N+]1(C)C/C(=C\C=C\c2ccccc2)C(=O)/C(=C/C=C/c2ccccc2)C1`, the GI50 is 17.8 µM (inactive) in the assay with 786-0; 60.1 µM (inactive) in the assay with A498; 49.7 µM (inactive) with ACHN; 1.02 µM (active) with HL-60; 9.53 µM (inactive) in the assay with HT-29; 4.29 µM (inactive) in the assay on Hs-578T. Moreover, the GI50 in the assay with KM-20L2 is 14.7 µM (inactive); in the assay on KM12 it was 2.93 µM (inactive); with M14, 16.3 µM (inactive); with MDA-MB-231, 10.4 µM (inactive); with MOLT-4 it was 4.06 µM (inactive); in the assay with NCI/ADR-RES, > 100 µM (inactive). The GI50 in the assay with OVCAR-3 is 8.61 µM (inactive); with OVCAR-5, 24.3 µM (inactive); with SF-268, 4.97 µM (inactive); in the assay with SK-MEL-2, 17 µM (inactive); in the assay with SNB-75, 6.73 µM (inactive); in the assay on SR it was 3.1 µM (inactive). For the same compound, the GI50 was 9.79 µM (inactive) with SW-620 and 8.39 µM (inactive) in the assay with UACC-257.

The values above are taken from ChEMBL document CHEMBL1201862, “PubChem BioAssay data set” (2004).
